Data as given in patent US20050054555A1, “Kahalalide compounds for use in cancer therapy” (priority 2001, published 2005).

Assays:
[1] = tested on: patients with advanced or metastatic prostate cancer; test: Phase I trial KHF-A-001-00: safety of kahalalide F daily x 5 over 1 hour infusion every 21 days; type: in vivo, human
Source text: The rate of subject entry and escalation to the next dose level will depend upon assessment of the safety profile of patients entered at each dose level. Toxicity will be evaluated and graded according to the Common Toxicity Criteria, version 2.0.
In order to minimize the number of patients treated at the subtoxic dose levels, a single patient will be treated per dose level with 100% dose escalation in the absence of any toxicity G2 (excluding alopecia) during their first course of treatment. After the occurrence of grade 2 toxicity (excluding asthenia, alopecia, nausea and vomiting or anemia), the dose level is expanded to three patients with only 50% incremental increase in dosage in advancing to the next dose level. For the occurrence of grade 3 non-hematological toxic effects the dose level should be expanded up to six patients. This second cohort of 3 patients will be included consecutively. If the first or second patient develops dose limiting toxicities no further patients will be treated at this dose level, it will be defined as MTD and the accrual will begin at a lower dose level. If only one DLT occurs at this dose level another 3 patients will be included at the next dose level with an increase of 25% only.
There is no intrapatient dose escalation, only de-escalation. If the toxicity is grade 3 or worse in a course of chemotherapy, then the dose is reduced one level for the next course.
The maximum tolerated dose (MTD) is defined as the dose at which at least 2 out of 3 or more than 3 patients experience DLT. However, it is possible that additional patients may experience DLT due to the timing of patient enrollment into that dose level.
Dose limiting toxicities (DLTs) are defined as follows: […]
Grade IV Neutropenia lasting for >5 days or with a temperature >38.5.
Grade IV thrombocytopenia.
Any other grade III or IV non hematological toxicity, excluding nausea, emesis and hypersensitivity reactions.
Grade III or IV liver toxicity if not reversible by day 21.
These toxicities are only considered DLTs if they happen during cycle 1. […]
A dose of 20 mcg/m2 was considered a safe starting dose on the basis of acute toxicity studies in animals. The trial was designed as an accelerated dose escalation (pharmacokinetically guided).

solid tumours = tested on: solid tumours
Protocol: KHF-A-002-01. Phase I Clinical and Pharmacokinetic study to determine the safety of Kahalalide F administered as a weekly infusion over 1 hour in patients with solid tumours.
This trial was addressed to any solid tumours and was designed as a classical escalation. […] One cycle in this trial means a week, so 4 cycles mean 1 month of treatment.

[2] = 20 patients, daily x5 every 21 days, all dose levels
[3] = 20 patients, daily x5 every 21 days, all dose levels, calcium adjusted
[4] = 20 patients, daily x5 every 21 days, all dose levels, not drug-related
[5] = 400 mcg/m2 weekly, 6 months (24 cycles)

C/C=C1\NC(=O)[C@H](Cc2ccccc2)NC(=O)[C@@H](C(C)C)NC(=O)[C@@H](C(C)CC)NC(=O)[C@H](NC(=O)C(NC(=O)[C@H](CCCN)NC(=O)[C@H]2CCCN2C(=O)[C@H](NC(=O)[C@@H](NC(=O)[C@@H](NC(=O)[C@H](NC(=O)CCCC(C)C)C(C)C)C(C)O)C(C)C)C(C)C)C(C)CC)C(C)OC(=O)[C@H](C(C)C)NC1=O (single isomer, unassigned) [kahalalide F]
Non-hematologic toxicity, lab abnormalities per patient: CPK, Grade 1 [1, 2]: 35%
Non-hematologic toxicity, lab abnormalities per patient: CPK, Grade 2 [1, 2]: 0%
Non-hematologic toxicity, lab abnormalities per patient: CPK, Grade 3 [1, 2]: 0%
Non-hematologic toxicity, lab abnormalities per patient: CPK, Grade 4 [1, 2]: 0%
Non-hematologic toxicity, lab abnormalities per patient: Creatinine, Grade 1 [1, 2]: 35%
Non-hematologic toxicity, lab abnormalities per patient: Creatinine, Grade 2 [1, 2]: 0%
Non-hematologic toxicity, lab abnormalities per patient: Creatinine, Grade 3 [1, 2]: 0%
Non-hematologic toxicity, lab abnormalities per patient: Creatinine, Grade 4 [1, 2]: 0%
Non-hematologic toxicity, lab abnormalities per patient: GGT, Grade 1 [1, 2]: 35%
Non-hematologic toxicity, lab abnormalities per patient: GGT, Grade 2 [1, 2]: 15%
Non-hematologic toxicity, lab abnormalities per patient: GGT, Grade 3 [1, 2]: 25%
Non-hematologic toxicity, lab abnormalities per patient: GGT, Grade 4 [1, 2]: 5%
Non-hematologic toxicity, lab abnormalities per patient: GOT, Grade 1 [1, 2]: 40%
Non-hematologic toxicity, lab abnormalities per patient: GOT, Grade 2 [1, 2]: 15%
Non-hematologic toxicity, lab abnormalities per patient: GOT, Grade 3 [1, 2]: 15%
Non-hematologic toxicity, lab abnormalities per patient: GOT, Grade 4 [1, 2]: 10%
Non-hematologic toxicity, lab abnormalities per patient: GPT, Grade 1 [1, 2]: 15%
Non-hematologic toxicity, lab abnormalities per patient: GPT, Grade 2 [1, 2]: 25%
Non-hematologic toxicity, lab abnormalities per patient: GPT, Grade 3 [1, 2]: 20%
Non-hematologic toxicity, lab abnormalities per patient: GPT, Grade 4 [1, 2]: 10%
Non-hematologic toxicity, lab abnormalities per patient: Hypo P, Grade 1 [1, 2]: 10%
Non-hematologic toxicity, lab abnormalities per patient: Hypo P, Grade 2 [1, 2]: 15%
Non-hematologic toxicity, lab abnormalities per patient: Hypo P, Grade 3 [1, 2]: 0%
Non-hematologic toxicity, lab abnormalities per patient: Hypo P, Grade 4 [1, 2]: 0%
Non-hematologic toxicity, lab abnormalities per patient: HypoK+, Grade 1 [1, 2]: 20%
Non-hematologic toxicity, lab abnormalities per patient: HypoK+, Grade 2 [1, 2]: 0%
Non-hematologic toxicity, lab abnormalities per patient: HypoK+, Grade 3 [1, 2]: 0%
Non-hematologic toxicity, lab abnormalities per patient: HypoK+, Grade 4 [1, 2]: 0%
Non-hematologic toxicity, lab abnormalities per patient: HypoNa+, Grade 1 [1, 2]: 10%
Non-hematologic toxicity, lab abnormalities per patient: HypoNa+, Grade 2 [1, 2]: 0%
Non-hematologic toxicity, lab abnormalities per patient: HypoNa+, Grade 3 [1, 2]: 5%
Non-hematologic toxicity, lab abnormalities per patient: HypoNa+, Grade 4 [1, 2]: 5%
Non-hematologic toxicity, lab abnormalities per patient: HypoCa*, Grade 1 [1, 3]: 65%
Non-hematologic toxicity, lab abnormalities per patient: HypoCa*, Grade 2 [1, 3]: 0%
Non-hematologic toxicity, lab abnormalities per patient: HypoCa*, Grade 3 [1, 3]: 0%
Non-hematologic toxicity, lab abnormalities per patient: HypoCa*, Grade 4 [1, 3]: 0%
Most frequently reported non-hematologic toxicities: Hypertension, Grade 1 [1, 4]: 0
Most frequently reported non-hematologic toxicities: Hypertension, Grade 2 [1, 4]: 0
Most frequently reported non-hematologic toxicities: Hypertension, Grade 3 [1, 4]: 15
Most frequently reported non-hematologic toxicities: Hypertension, Grade 4 [1, 4]: 0
Non-hematologic toxicity, lab abnormalities per patient: Alk. phosphatase, Grade 1 [1, 4]: 35%
Non-hematologic toxicity, lab abnormalities per patient: Alk. phosphatase, Grade 2 [1, 4]: 20%
Non-hematologic toxicity, lab abnormalities per patient: Alk. phosphatase, Grade 3 [1, 4]: 25%
Non-hematologic toxicity, lab abnormalities per patient: Alk. phosphatase, Grade 4 [1, 4]: 5%
Worst toxicity ([1]; Level I, dose 20 mcg/m2, 1 patient): none
Worst toxicity ([1]; Level II, dose 40, 1 patient): none
Worst toxicity ([1]; Level III, dose 80, 1 patient): none
Worst toxicity ([1]; Level IV, dose 160, 1 patient): none
Worst toxicity ([1]; Level VI, dose 425, 3 patients): none
Worst toxicity ([1]; Level VIII, dose 700, 3 patients): none
hematological toxicity ([1]; daily x5 schedule): no hematological toxicity was seen
most commonly seen liver toxicity in the MTD ([1]; daily x5 schedule): grade 4 transaminases elevation
overall response in a patient with hepatocellular carcinoma (solid tumours; [5]): stable disease
response in a patient with hepatocellular carcinoma (target lesion) (solid tumours; [5]): Partial response in one target lesion
efficacy in a patient with epidermoid carcinoma of the cavum (solid tumours; 400 mcg/m2 weekly, ORL exploration): Subjective improvement and non evaluable response
efficacy in a patient with non small cell lung cancer (solid tumours; 530 mcg/m2 weekly, 4 months (16 infusions)): without evidence of progression disease
Efficacy (tumour type with hints of efficacy) (solid tumours; Level III, dose 530 weekly): NSCLC
efficacy in one patient with peritoneal mesothelioma (solid tumours; weekly schedule): clinical benefit with reduction of ascytes volume
